# Reference: ChEMBL document CHEMBL1201862, “PubChem BioAssay data set” (2004)
#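 96-well plates; 48 h exposure; 5 concentrations. Endpoints by linear interpolation between flanking doses. Not reached: highest tested concentration assigned. The concentration for 50% growth inhibition is given as GI50.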 Active and inactive are the calls of the source. Cut-off read from the data, not from the text of the source: active = GI50 up to about 1.1 µM and inactive = higher.
# How the values were obtained:
# Test in all cases: growth of human tumour cells (NCI), 48 h
# [1] = system: BT-549
# [2] = system: DMS-114
# [3] = system: XF498
# [4] = system: LXFL 529
# [5] = system: DMS-273
# [6] = system: KM-20L2
# [7] = system: RXF 631
# [8] = system: SNB-78
# [9] = system: HOP-18
compound,measurement,setting,value
O=C(Nc1ccccc1)N(CCCCN(Cc1ccccc1)C(=O)Nc1ccccc1)Cc1ccccc1,GI50,[1],> 100 µM (inactive)
O=C1CC(=O)n2cnc3cccc(c32)N1,GI50,[1],> 100 µM (inactive)
CCOC(C[C@H](O)[C@H]1COC(=S)S1)OCC,GI50,[2],> 100 µM (inactive)
same,GI50,[3],> 100 µM (inactive)
same,GI50,[4],> 100 µM (inactive)
same,GI50,[5],> 100 µM (inactive)
same,GI50,[6],> 100 µM (inactive)
COc1ccc(C2c3cc4c(cc3C(O)C3CCC(=O)N23)OCO4)cc1 (stereo not drawn),GI50,[1],96.4 µM (inactive)
CNc1ncnc2c1ncn2C1C=CC(COS(N)(=O)=O)C1 (stereo not drawn),GI50,[1],> 100 µM (inactive)
O=C(c1ccccc1)[C@H]1Nc2ccc(Cl)cc2C2c3ccccc3CC21 (stereo partly drawn),GI50,[2],69.3 µM (inactive)
same,GI50,[3],21.5 µM (inactive)
same,GI50,[7],27.8 µM (inactive)
same,GI50,[4],27.8 µM (inactive)
same,GI50,[5],66.8 µM (inactive)
same,GI50,[6],> 100 µM (inactive)
same,GI50,[8],> 100 µM (inactive)
CN(c1c(Cl)cccc1Cl)S(=O)(=O)c1ccccc1[N+](=O)[O-],GI50,[1],> 100 µM (inactive)
c1ccc2c(c1)CCc1[nH]c3c(c1-2)-c1ccccc1CC3,GI50,[1],> 100 µM (inactive)
COc1ccc(/N=c2\ssc(C(=S)Nc3ccc(OC)cc3)c2S)cc1,GI50,[1],> 100 µM (inactive)
N#Cc1ccc(/C=N\N2C(=O)c3ccccc3C2=O)cc1,GI50,[2],> 100 µM (inactive)
same,GI50,[3],> 100 µM (inactive)
same,GI50,[4],> 100 µM (inactive)
same,GI50,[5],> 100 µM (inactive)
same,GI50,[6],> 100 µM (inactive)
same,GI50,[8],> 100 µM (inactive)
same,GI50,[9],> 100 µM (inactive)
N#Cc1ccc(Sc2ccccc2)cc1C#N,GI50,[3],23.1 µM (inactive)
same,GI50,[7],30.9 µM (inactive)
same,GI50,[4],59.7 µM (inactive)
same,GI50,[5],19.1 µM (inactive)
same,GI50,[6],75.3 µM (inactive)
same,GI50,[9],50.6 µM (inactive)
CC(=O)Nc1ccc(OC/C(N)=N/NC(=O)c2ccncc2)cc1,GI50,[1],> 100 µM (inactive)
O=C1N[C@@H]2c3c(Br)sc(Br)c3C(=O)[C@@H]2O1,GI50,[1],8.57 µM (inactive)
C/C(=N/N)c1sc(-c2nc(C)c(/C(C)=N\N)s2)nc1C,GI50,[2],> 46.7 µM (inactive)
same,GI50,[3],38.2 µM (inactive)
same,GI50,[4],50.8 µM (inactive)
same,GI50,[5],> 41.3 µM (inactive)
same,GI50,[6],> 100 µM (inactive)
same,GI50,[8],> 100 µM (inactive)
same,GI50,[9],> 67.1 µM (inactive)
O=C(Nc1ccn(C2CC(I)C(COC(c3ccccc3)(c3ccccc3)c3ccccc3)O2)c(=O)n1)c1ccccc1 (stereo not drawn),GI50,[1],25.6 µM (inactive)
CN(C)CC1CN/C(=N\C(=O)Nc2ccccc2)O1 (stereo not drawn),GI50,[1],> 100 µM (inactive)
COc1cc2ccnc3c(=C(SC)SC)c(=O)c(c1OC)c23,GI50,[2],17.3 µM (inactive)
same,GI50,[7],14.8 µM (inactive)
same,GI50,[4],4.65 µM (inactive)
same,GI50,[5],13.8 µM (inactive)
same,GI50,[6],15.7 µM (inactive)
same,GI50,[9],13.3 µM (inactive)
CCC(C)C(NC(=O)c1c2ccccc2nc2ccccc12)C(=O)O (stereo not drawn),GI50,[1],22.6 µM (inactive)
N=C(/C=C/c1ccc(-c2cn3cc(/C=C/C(=N)N4CCOCC4)ccc3n2)cc1)N1CCOCC1,GI50,[1],> 100 µM (inactive)
CN(C)c1ccc(C=C2N=C(c3ccccc3)N(c3cc(C(=O)c4ccccc4)ccc3N3C(=O)/C(=C/c4ccc(N(C)C)cc4)N=C3c3ccccc3)C2=O)cc1,GI50,[1],28.3 µM (inactive)
Oc1nnnc2c1sc1ncccc12,GI50,[1],> 100 µM (inactive)
Cc1cc(C)c(/C=N/NS(=O)(=O)c2ccccc2)c(C)c1,GI50,[2],60.4 µM (inactive)
same,GI50,[7],> 100 µM (inactive)
same,GI50,[4],62.2 µM (inactive)
same,GI50,[5],> 100 µM (inactive)
same,GI50,[6],> 100 µM (inactive)
same,GI50,[8],> 100 µM (inactive)
same,GI50,[9],59 µM (inactive)
Cc1ccc(CS(=O)(=O)C/N=C2\Sc3ccccc3N\C2=C/C(=O)c2ccc(Cl)cc2)cc1,GI50,[1],> 10 µM (inactive)
Cc1c(Cc2ccccc2)c(Cc2ccccc2)c(C)[s+]1[O-],GI50,[1],33.2 µM (inactive)
COc1cc(N(CCC#N)CCC#N)ccc1C(/N=N/c1cccc([N+](=O)[O-])c1)=N\NC(=O)c1ccc(C)cc1,GI50,[1],22 µM (inactive)
Cc1cn(C2CC(N=[N+]=[N-])C(CO[Si](C)(C)C(C)(C)C)O2)c(=O)[nH]c1=O (stereo not drawn),GI50,[1],10.7 µM (inactive)
CN1C/C(=C\c2ccco2)c2nc(N)nc(-c3ccco3)c2C1,GI50,[2],> 100 µM (inactive)
same,GI50,[3],23.6 µM (inactive)
same,GI50,[4],74.1 µM (inactive)
same,GI50,[5],88.1 µM (inactive)
same,GI50,[6],> 100 µM (inactive)
C1=CC=C2NCCCCCC/N=C3\C=CC=CC=C3NCCc3cccc(c3)CC/N=C/2C=C1,GI50,[2],13.3 µM (inactive)
same,GI50,[7],11.2 µM (inactive)
same,GI50,[4],10.7 µM (inactive)
same,GI50,[5],10.2 µM (inactive)
same,GI50,[6],4.81 µM (inactive)
same,GI50,[8],> 100 µM (inactive)
O=C(Cn1c2ccc(Br)cc2c2nc3ccccc3nc21)N1CCOCC1,GI50,[1],> 100 µM (inactive)
C=CCOc1ccc(C2C(C(=O)OCC)C(=O)CC(C)(O)C2C(=O)OCC)cc1OC (stereo not drawn),GI50,[1],> 100 µM (inactive)
Cc1ccc2c(=O)c3cccc(CC(=O)O)c3[nH]c2c1C,GI50,[1],> 100 µM (inactive)
CCOC(=O)Oc1cc2c(c(OC)c1OC)-c1ccc(OC)c(=O)cc1C(NC(C)=O)CC2 (stereo not drawn),GI50,[2],0.0137 µM (active)
same,GI50,[3],0.0432 µM (active)
same,GI50,[7],0.0565 µM (active)
same,GI50,[4],< 0.0162 µM (active)
same,GI50,[5],< 0.01 µM (active)
same,GI50,[6],0.0416 µM (active)
same,GI50,[8],0.0156 µM (active)
COc1cc2c[n+](C)c3c4cc(OC)c(OC)cc4c(OCc4ccccc4)cc3c2cc1OC,GI50,[1],0.32 µM (active)
CC1=NN(c2nc(N)nc(CSc3cc(Cl)c(C)cc3S(N)(=O)=O)n2)C(C)(C)C1,GI50,[1],> 10 µM (inactive)
Cc1ccc(S(N)(=O)=O)cc1 [P-TOLUENESULFONAMIDE],GI50,[1],977 µM (inactive)
